Our source for the Kd values is ChEMBL document CHEMBL5257055, “Contemporary Progress and Opportunities in RNA-Targeted Drug Discovery” (ACS Med Chem Lett, 2023).

pKd: −log10 of the molar value. Numbered stars: 1 amine (or outer) side, 2 acyl side, 3 side chain; on linkers, the order of the positions; unused ones are H or OH. Bridge positions count the residues as written; N and C are the ends. Peptide text beside a SMILES is read from it. X1 = CCC(C)CCCCCCCCC(CC(=O)[*:1])O[*:2]

Assay [1] in a line: Binding affinity to CUG repeat RNA (unknown origin) assessed as dissociation constant.
Assay [2] is described as follows: Binding affinity to pre-miR-544 (unknown origin) assessed as dissociation constant.
Assay [3] is described as follows: Binding affinity to CAG repeat RNA (unknown origin) assessed as dissociation constant.
Assay [4] is described as follows: Binding affinity to HCV IRES. Set-up: species or system Hepacivirus hominis.
A short description of assay [5]: Binding affinity to CGG repeat RNA (unknown origin) assessed as dissociation constant.
Assay [6] can be described thus: Binding affinity to pre-miR-96 (unknown origin) assessed as dissociation constant.
The nature of assay [7]: Binding affinity to pre-miR-210 (unknown origin) assessed as dissociation constant.
Assay [8] is described as follows: Binding affinity to SARS-CoV-2 Attenuator hairpin RNA by MST assay. Set-up: species or system Severe acute respiratory syndrome coronavirus 2.
A short description of assay [9]: Binding affinity to pre-miR-200c (unknown origin) assessed as dissociation constant.
Assay [10] in a line: Binding affinity to HCV RNA. Set-up: species or system Hepacivirus hominis.
The next assay concerns FMN riboswitch. Briefly: Binding affinity to Escherichia coli FMN riboswitch RNA assessed as dissociation constant. The class given is nucleic-acid assay.
A short description of assay [11]: Binding affinity to pre-miR-27a (unknown origin) assessed as dissociation constant.
A short description of assay [12]: Binding affinity to XIST RNA (unknown origin).
The nature of assay [13]: Binding affinity to preQ1.
A short description of assay [14]: Binding affinity to mouse MALAT1 assessed as dissociation constant.
Assay [15] is described as follows: Binding affinity to pre-miR-21 (unknown origin) assessed as dissociation constant.
The next assay deals with T1, Sulfhydryl oxidase 1 (Homo sapiens, UniProt O00391).
T1 sequence (O00391 whole entry): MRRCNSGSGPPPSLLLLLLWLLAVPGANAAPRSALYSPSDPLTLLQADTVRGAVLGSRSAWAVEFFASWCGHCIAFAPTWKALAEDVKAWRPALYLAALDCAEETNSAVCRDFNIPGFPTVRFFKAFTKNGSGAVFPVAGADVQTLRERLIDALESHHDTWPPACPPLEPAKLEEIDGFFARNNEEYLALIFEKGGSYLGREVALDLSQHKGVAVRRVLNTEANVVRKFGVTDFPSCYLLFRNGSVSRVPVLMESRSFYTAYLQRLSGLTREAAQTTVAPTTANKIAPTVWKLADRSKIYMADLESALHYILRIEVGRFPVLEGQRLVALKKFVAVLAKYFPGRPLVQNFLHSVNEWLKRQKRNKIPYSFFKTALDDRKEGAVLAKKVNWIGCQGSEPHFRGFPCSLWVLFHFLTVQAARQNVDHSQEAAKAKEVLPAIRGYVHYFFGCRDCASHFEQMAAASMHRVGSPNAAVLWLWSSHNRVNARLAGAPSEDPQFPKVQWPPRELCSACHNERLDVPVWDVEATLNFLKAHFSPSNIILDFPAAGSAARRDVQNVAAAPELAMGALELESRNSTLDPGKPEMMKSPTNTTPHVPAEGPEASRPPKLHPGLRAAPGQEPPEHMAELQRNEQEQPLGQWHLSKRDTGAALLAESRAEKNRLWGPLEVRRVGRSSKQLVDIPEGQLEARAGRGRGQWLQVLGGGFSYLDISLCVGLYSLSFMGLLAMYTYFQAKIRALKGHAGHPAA
Put plainly: Binding affinity to QSOX1 (unknown origin) assessed as dissociation constant.

A short description of assay [16]: Binding affinity to r(AUUCA) repeat RNA (unknown origin) assessed as dissociation constant.
A short description of assay [17]: Binding affinity to pre-mRNA (unknown origin).
Assay [18] in a line: Binding affinity to HIV-1 RNA assessed as dissociation constant. Set-up: species or system Human immunodeficiency virus 1.

In the case of `N#Cc1c(N2CCCC2)nc(N)c2c(N)nc(N3CCCC3)cc12`, the values for the pKd in assay [1], in [2] and in assay [3] were 6.90, 6.00 and 5.85, respectively.

In the case of `CN(C)CC1COc2ccc3nc4n(c3c2C1)CC(CN(C)C)CN4` (stereo not drawn), the pKd (in general, the Kd on a negative log10 scale, so that one unit is a factor of ten) in assay [4] was 6.14. `CN1CCN(c2ccc3nc(-c4ccc5[nH]c(-c6cccc(OCCCC(=O)NCCCN=[N+]=[N-])c6)nc5c4)[nH]c3c2)CC1`: the pKd was 6.82 in [1], 6.43 in assay [5], 5.82 in assay [6] and 5.77 in assay [7]. In turn, `CNc1nc(Nc2cccc(C(=O)O)c2)nc2ccccc12` showed a pKd in [8] of 7.96.

Regarding `O=C(Nc1ccc(C2=NCCN2)cc1)c1cc(C(=O)Nc2ccc(C3=NCCN3)cc2)cc(C(=O)Nc2ccc(C3=NCCN3)cc2)c1`, the pKd in [9] is 5.96; in assay [10], 6.07. On to `CNc1ncc(CN2CCCC(c3nc(O)cc(-c4cccs4)n3)C2)cn1` (stereo not drawn), for which the pKd in the assay with FMN riboswitch was 7.80. As to `C#CCN(CC(N)=O)C(=O)C[C@@H](Cc1c[nH]c2ccccc12)NC(=O)[C@H]1CC(NC(=O)Cn2c(=O)[nH]c3ccccc3c2=O)CN1` (stereo partly drawn), the negative logarithm of the Kd (pKd) in [11] is 7.05. With `c1ccc(COc2cccc(-c3ccc4[nH]nc(-c5nc6ccccc6[nH]5)c4c3)c2)cc1`, the pKd in assay [12] is 6.40. `NCCOc1ccc2oc3ccccc3c2c1` gave a pKd in assay [13] of 6.30. As for `O=C(NCCN1CCCC1)c1ccc2oc(C(=O)c3cc(O)c(O)c(O)c3)cc2c1`, the pKd in assay [4] was 6.44. As for `COc1ccc(-c2cnc(NCc3cccc(OC)c3)n2C)cc1`, the pKd in assay [14] was 5.54.

Take `NC(=O)CNC(=O)[C@H](Cc1ccc(Cl)cc1)NC(=O)c1ccc2nc(-c3ccccc3)[nH]c2c1`: the pKd in assay [1] is 5.20. As to `CN(C)c1nc(N)c(C(=O)NC(=N)N)nc1C#Cc1ccccc1`, in [4], the pKd was 6.28. Regarding `C#CCCC1(CCC(=O)Nc2ccc(OC)c(OCc3cn4ccccc4n3)c2)N=N1`, the pKd in assay [15] is 6.59. For the compound `C#CCCC1(CCC(=O)N(C)[C@@H]2CC[C@H](c3ccc(Cl)c(Cl)c3)c3ccccc32)N=N1`, the pKd at Sulfhydryl oxidase 1 was 4.80.

As for `Cc1ccc(C(=O)N2Cc3ccccc3C[C@H]2C(N)=O)cc1NCc1c(F)ccc(O)c1F`, in assay [11], the pKd was 7.03.

As for `CCC(C)CCCCCCCCC1CC(=O)N[C@@H](CCC(=O)O)C(=O)N[C@@H](CC(C)C)C(=O)N[C@@H](CC(C)C)C(=O)N[C@@H](C(C)C)C(=O)N[C@@H](CC(=O)O)C(=O)N[C@@H](CC(C)C)C(=O)N[C@@H](CC(C)C)C(=O)O1` (stereo partly drawn) (ELLVDLL; linker N-C via X1), the pKd in assay [15] is 6.11. Consider `N=C(N)c1ccc(-c2ccc(-c3ccc(C(=N)N)cc3)o2)cc1` [FURAMIDINE], for which the pKd is 6.25 in assay [14] and 6.77 in assay [16]. On to `O=C1c2c(O)ccc(O)c2C(=O)c2c(NCCNCCO)ccc(NCCNCCO)c21` [MITOXANTRONE], for which the pKd is > 6.00 in assay [17] and 7.48 in assay [15].

With `CC(=O)c1c(C)c2cnc(Nc3ccc(N4CCNCC4)cn3)nc2n(C2CCCC2)c1=O` [PALBOCICLIB], in assay [18], the pKd was 6.98.
